Reference: patent US12599620B2, “Method for the treatment of chronic fatigue syndrome using an inhibitory or cytotoxic agent against plasma cells” (Vestlandets Innovasjonsselskap AS, priority 2019, dated 2026)

Tests used:
[1] = system: patients with N-Methyl-D-Aspartate (NMDA) receptor antibody-mediated encephalitis; conditions: refractory to first and second line therapy; cited from earlier work
lupus nephritis in mice = conditions: Bortezomib plus B-cell depletion; cited from earlier work
ME/CFS patients [2] = assay: Bortezomib treatment of ME/CFS patients (case reports Patient 1, Patient 2); type: in vivo, human; conditions: for clinical effect on ME/CFS symptoms: PEM, pain
Experimental: They received Bortezomib subcutaneously says 1, 4, 11 and 15. […] They therefore received the third course of Bortezomib as an intravenous infusion with the same dose 1.3 mg/m^2, given at days 1, 4, 8 and 11.
They had increasing energy, increased exertion and was able to perform many new tasks. […] The self-reported symptom improvement was supported by measured steps per 24 hours (Fitbit armband) and in the response period we registered more than 10.000 steps per day.
The effect lasted for approximately 7 weeks before they started experiencing gradual relapse of the ME/CFS symptoms.
[…] Fitbit armband verified […] description of improvement, with increasing steps per 24 hours from mean 1500-2000 before intervention to approximately 4000, up to 7000 on single days, after response.

ME/CFS patients [3] = conditions: cited from earlier work; for effect on ME/CFS symptoms: patients with longstanding ME/CFS given the drug for an acquired cancer
ME/CFS patients [4] = conditions: Patient 2; open-label trial, cyclophosphamide intravenous infusions

Structure (SMILES) | clinical outcome [1] | outcome (lupus nephritis in mice) | duration of effect before gradual relapse (ME/CFS patients [2]; Patient 1) | measured steps per 24 hours (Fitbit armband) in the response period (ME/CFS patients [2]; Patient 1) | clinical effect on ME/CFS symptoms (ME/CFS patients [2]; Patient 1, cognitive disturbances, sleep problems) | side effects (ME/CFS patients [2]; Patient 1, first course 1.0 mg/m^2 subcutaneously) | side effects (ME/CFS patients [2]; Patient 1, second course 1.3 mg/m^2 subcutaneously) | side effects (ME/CFS patients [2]; Patient 1, third course 1.3 mg/m^2 intravenous infusion) | start of gradual improvement of ME/CFS symptoms, from start of bortezomib treatment (ME/CFS patients [2]; Patient 1, three courses Bortezomib 1.0-1.3 mg/m^2 sc/iv) | response lasting until time after the last Bortezomib infusion (ME/CFS patients [2]; Patient 2) | steps per 24 hours on single days after response (ME/CFS patients [2]; Patient 2) | side effects (ME/CFS patients [2]; Patient 2, after the last (sixth) course) | start of improvement of ME/CFS symptoms, after start of Bortezomib intervention (ME/CFS patients [2]; Patient 2, courses 1.0 then 1.3 mg/m^2) | clinical effect on ME/CFS symptoms (ME/CFS patients [2]; Patient 2, energy, dizziness, cognitive function) | side effects (ME/CFS patients [2]; Patient 2, first course 1.0 mg/m^2 subcutaneously) | total duration of response before gradual relapse (ME/CFS patients [2]; Patient 2, in total 6 courses) | steps per 24 hours (Fitbit armband) after response (ME/CFS patients [2]; Patient 2, mean 1500-2000 before intervention) | effect on ME/CFS symptoms (ME/CFS patients [3]) | share of patients with significant clinical improvements of long duration (ME/CFS patients [3]; phase II trial, 6 courses of Cyclophosphamide) | duration of clinical response before gradual relapse (ME/CFS patients [4])
CC(C)C[C@H](NC(=O)[C@H](Cc1ccccc1)NC(=O)c1cnccn1)B(O)O [Bortezomib] | clinical improvement and reduction of pathologic autoantibodies | sustained plasma cell depletion and amelioration of lupus nephritis | approximately 7 weeks | more than 10.000 steps per day | gradual improvement of all their ME/CFS symptoms | no bortezomib-associated side effects except an exanthema around the injection site | increasing local reaction at the injection site and with some transient fatigue and pain in the muscles | transient exanthema along the vein on the arm | 10 week | 6 weeks | up to 7000 steps per 24 hours | discomfort in their lower extremities at the legs and feet, and some constipation | 7 weeks | gradual and consistent improvement of all their ME/CS symptoms | minimal skin reaction at the injection site and no other side effects | 16 weeks | approximately 4000 steps per 24 hours |  |  | 
O=P1(N(CCCl)CCCl)NCCCO1 (stereo not drawn) [Cyclophosphamide] |  |  |  |  |  |  |  |  |  |  |  |  |  |  |  |  |  | significant symptomatic improvement | more than half the patients | almost a year
O=P1(NCCCl)OCCCN1CCCl (stereo not drawn) [Ifosfamide] |  |  |  |  |  |  |  |  |  |  |  |  |  |  |  |  |  | significant symptomatic improvement |  | 
